Measured values taken from patent US12030878B2 (BRISTOL-MYERS SQUIBB COMPANY, priority 2017, dated 2024).

Experiments:
Type in all cases: cell-based
[1] = biological target: T1, human TLR7 (Homo sapiens, UniProt Q9NYK1); test: TLR7 inhibition reporter assay (HEK-Blue SEAP); conditions: HEK-Blue cells overexpressing human TLR7, stimulated with gardiquimod 7.5 μM, 22 hour incubation
T1 construct: host or cells: HEK-Blue cells
T1 sequence (Q9NYK1 27-1049): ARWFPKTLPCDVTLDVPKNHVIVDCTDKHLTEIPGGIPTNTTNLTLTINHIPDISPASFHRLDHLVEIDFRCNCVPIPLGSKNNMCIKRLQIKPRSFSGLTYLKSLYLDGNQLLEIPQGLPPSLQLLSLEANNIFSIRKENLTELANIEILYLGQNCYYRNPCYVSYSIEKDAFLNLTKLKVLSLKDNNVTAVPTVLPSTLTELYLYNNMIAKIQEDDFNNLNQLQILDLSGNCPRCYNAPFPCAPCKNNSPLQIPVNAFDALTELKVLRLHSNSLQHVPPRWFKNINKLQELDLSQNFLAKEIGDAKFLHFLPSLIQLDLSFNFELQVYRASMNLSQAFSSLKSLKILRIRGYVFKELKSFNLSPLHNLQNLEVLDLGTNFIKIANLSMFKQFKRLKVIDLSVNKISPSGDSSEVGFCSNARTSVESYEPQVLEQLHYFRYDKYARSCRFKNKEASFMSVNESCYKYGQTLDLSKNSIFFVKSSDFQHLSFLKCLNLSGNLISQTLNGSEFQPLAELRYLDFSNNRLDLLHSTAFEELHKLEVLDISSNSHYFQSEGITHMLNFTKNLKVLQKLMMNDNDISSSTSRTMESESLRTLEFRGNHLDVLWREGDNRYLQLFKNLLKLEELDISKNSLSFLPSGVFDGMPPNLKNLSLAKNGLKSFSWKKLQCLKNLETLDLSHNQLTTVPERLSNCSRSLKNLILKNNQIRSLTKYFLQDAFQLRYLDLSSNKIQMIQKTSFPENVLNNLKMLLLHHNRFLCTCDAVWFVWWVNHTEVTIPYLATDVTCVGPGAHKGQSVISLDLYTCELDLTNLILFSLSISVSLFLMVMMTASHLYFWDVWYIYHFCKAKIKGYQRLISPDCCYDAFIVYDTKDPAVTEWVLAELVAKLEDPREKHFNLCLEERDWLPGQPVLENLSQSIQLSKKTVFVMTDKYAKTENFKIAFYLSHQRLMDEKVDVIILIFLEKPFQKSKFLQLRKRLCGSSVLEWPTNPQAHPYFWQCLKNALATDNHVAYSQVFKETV
In short: (§1)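 SEAP read-out via HEK-Blue Detection medium after 22 h at 37 °C; percent inhibition relative to agonist-plus-DMSO and known-inhibitor wells. Agonists: TLR7 gardiquimod 7.5 μM, TLR8 R848 15.9 μM, TLR9 ODN2006 5 nM. Dose range 0.05 nM–50 μM, 30 min compound pre-treatment at RT.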

[2] = biological target: T2, human TLR9 (Homo sapiens, UniProt Q9NR96); test: TLR9 inhibition reporter assay (HEK-Blue SEAP); conditions: HEK-Blue cells overexpressing human TLR9, stimulated with ODN2006 5 nM, 22 hour incubation
T2 construct: host or cells: HEK-Blue cells
T2 sequence (Q9NR96 26-1032): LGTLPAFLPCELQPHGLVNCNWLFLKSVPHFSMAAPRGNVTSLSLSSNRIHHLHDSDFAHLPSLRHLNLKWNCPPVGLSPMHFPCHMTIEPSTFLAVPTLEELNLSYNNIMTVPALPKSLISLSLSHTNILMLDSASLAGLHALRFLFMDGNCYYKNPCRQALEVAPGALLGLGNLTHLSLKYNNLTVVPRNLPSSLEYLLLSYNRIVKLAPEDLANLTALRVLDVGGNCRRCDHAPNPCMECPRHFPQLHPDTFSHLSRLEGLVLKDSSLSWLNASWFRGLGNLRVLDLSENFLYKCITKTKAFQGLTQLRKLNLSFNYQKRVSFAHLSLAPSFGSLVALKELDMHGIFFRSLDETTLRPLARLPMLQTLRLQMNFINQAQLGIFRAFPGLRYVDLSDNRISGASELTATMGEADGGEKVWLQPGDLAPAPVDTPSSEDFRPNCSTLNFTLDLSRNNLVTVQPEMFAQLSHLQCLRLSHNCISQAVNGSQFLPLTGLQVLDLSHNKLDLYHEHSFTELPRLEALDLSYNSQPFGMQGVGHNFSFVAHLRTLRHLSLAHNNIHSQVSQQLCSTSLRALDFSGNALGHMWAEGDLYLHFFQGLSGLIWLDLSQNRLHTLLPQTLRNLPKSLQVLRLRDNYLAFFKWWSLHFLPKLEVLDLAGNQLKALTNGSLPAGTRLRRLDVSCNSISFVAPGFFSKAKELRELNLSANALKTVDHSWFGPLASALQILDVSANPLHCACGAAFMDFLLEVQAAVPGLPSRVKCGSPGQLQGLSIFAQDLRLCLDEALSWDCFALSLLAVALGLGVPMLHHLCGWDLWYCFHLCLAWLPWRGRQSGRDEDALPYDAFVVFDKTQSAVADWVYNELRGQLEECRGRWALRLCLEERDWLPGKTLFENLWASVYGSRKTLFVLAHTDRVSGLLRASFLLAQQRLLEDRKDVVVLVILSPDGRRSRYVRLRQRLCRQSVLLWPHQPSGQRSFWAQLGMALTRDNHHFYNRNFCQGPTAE
In short: as §1

[3] = biological target: T3, human TLR8 (Homo sapiens, UniProt Q9NR97); test: TLR8 inhibition reporter assay (HEK-Blue SEAP); conditions: HEK-Blue cells overexpressing human TLR8, stimulated with R848 15.9 μM, 22 hour incubation
T3 construct: host or cells: HEK-Blue cells
T3 sequence (Q9NR97 27-1041): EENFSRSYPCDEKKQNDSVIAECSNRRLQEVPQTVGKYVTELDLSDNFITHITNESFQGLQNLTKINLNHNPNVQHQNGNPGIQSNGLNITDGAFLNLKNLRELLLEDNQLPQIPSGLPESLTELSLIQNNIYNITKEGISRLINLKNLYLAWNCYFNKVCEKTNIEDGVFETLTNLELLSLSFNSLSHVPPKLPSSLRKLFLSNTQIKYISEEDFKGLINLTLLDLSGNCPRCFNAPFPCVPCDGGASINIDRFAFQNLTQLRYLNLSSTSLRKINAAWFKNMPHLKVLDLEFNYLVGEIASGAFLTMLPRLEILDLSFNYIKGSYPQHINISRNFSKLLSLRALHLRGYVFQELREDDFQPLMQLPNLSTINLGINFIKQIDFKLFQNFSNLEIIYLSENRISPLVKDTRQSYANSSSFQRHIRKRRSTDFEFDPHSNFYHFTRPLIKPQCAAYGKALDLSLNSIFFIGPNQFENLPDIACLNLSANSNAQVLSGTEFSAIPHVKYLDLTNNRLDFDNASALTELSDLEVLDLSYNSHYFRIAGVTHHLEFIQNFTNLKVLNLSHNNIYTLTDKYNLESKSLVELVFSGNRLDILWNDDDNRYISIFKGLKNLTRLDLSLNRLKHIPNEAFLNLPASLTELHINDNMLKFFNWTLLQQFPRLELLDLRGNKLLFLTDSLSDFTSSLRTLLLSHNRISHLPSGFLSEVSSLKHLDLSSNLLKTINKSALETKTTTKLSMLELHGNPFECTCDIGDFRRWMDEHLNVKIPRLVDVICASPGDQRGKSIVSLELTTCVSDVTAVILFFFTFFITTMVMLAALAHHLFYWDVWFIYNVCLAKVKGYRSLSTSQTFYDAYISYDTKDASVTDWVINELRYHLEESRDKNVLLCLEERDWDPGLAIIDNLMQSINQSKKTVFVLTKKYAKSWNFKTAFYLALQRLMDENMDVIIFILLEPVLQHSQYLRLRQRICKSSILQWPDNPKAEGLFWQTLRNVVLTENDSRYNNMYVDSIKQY
In short: as §1

## Cc1cc(-c2[nH]c3ccc(OC4CCN(C(=O)CN(C)C)CC4)cc3c2C(C)C)cn2ncnc12 [Example 101, 2-(dimethylamino)-1-(4-((3-isopropyl-2-(8-methyl-[1,2,4]triazolo[1,5-a]pyridin-6-yl)-1H-indol-5-yl)oxy)piperidin-1-yl)ethan-1-one]
[1]
  IC50: 2.3 nM
[2]
  IC50: 9.75 µM
[3]
  IC50: 35.9 nM

## Cc1cc(-c2[nH]c3ccc(OCC4CCN(C(=O)CN(C)C)CC4)cc3c2C(C)C)cn2ncnc12 [Example 102, 2-(dimethylamino)-1-(4-(((3-isopropyl-2-(8-methyl-[1,2,4]triazolo[1,5-a]pyridin-6-yl)-1H-indol-5-yl)oxy)methyl)piperidin-1-yl)ethan-1-one]
[1]
  IC50: 0.3 nM
[2]
  IC50: 2.57 µM
[3]
  IC50: 5 nM

## Cc1c(-c2[nH]c3ccc(OCC4CCN(C(=O)CN(C)C)CC4)cc3c2C(C)C)cn(C)c(=O)c1C [Example 103, 5-(5-((1-(dimethylglycyl)piperidin-4-yl)methoxy)-3-isopropyl-1H-indol-2-yl)-1,3,4-trimethylpyridin-2(1H)-one]
[1]
  IC50: 12.3 nM
[2]
  IC50: 5.4 µM
[3]
  IC50: 14.9 nM

## Cc1c(-c2[nH]c3ccc(OC4CCN(C(=O)CN(C)C)CC4)cc3c2C(C)C)cn(C)c(=O)c1C [Example 104, 5-(5-((1-(dimethylglycyl)piperidin-4-yl)oxy)-3-isopropyl-1H-indol-2-yl)-1,3,4-trimethylpyridin-2(1H)-one]
[1]
  IC50: 7.8 nM
[2]
  IC50: 5.11 µM
[3]
  IC50: 16.2 nM

## Cc1c(-c2[nH]c3ccc(OC4CCN(C(=O)CN(C)C)CC4)cc3c2C(C)C)cn2cnnc2c1C [Example 105, 1-(4-((2-(7,8-dimethyl-[1,2,4]triazolo[4,3-a]pyridin-6-yl)-3-isopropyl-1H-indol-5-yl)oxy)piperidin-1-yl)-2-(dimethylamino)ethan-1-one]
[1]
  IC50: 2.9 nM
[2]
  IC50: 1.56 µM
[3]
  IC50: 50.2 nM

## Cc1c(-c2[nH]c3ccc(OCC4CCN(C(=O)CN(C)C)CC4)cc3c2C(C)C)cn2cnnc2c1C [Example 106, 1-(4-(((2-(7,8-dimethyl-[1,2,4]triazolo[4,3-a]pyridin-6-yl)-3-isopropyl-1H-indol-5-yl)oxy)methyl)piperidin-1-yl)-2-(dimethylamino)ethan-1-one]
[1]
  IC50: 4.6 nM
[2]
  IC50: 2.11 µM
[3]
  IC50: 57.8 nM

## Cc1cc(-c2[nH]c3ccc(OCC4CN(C(=O)CN(C)C)C4)cc3c2C(C)C)cn2ncnc12 [Example 107, 2-(dimethylamino)-1-(3-(((3-isopropyl-2-(8-methyl-[1,2,4]triazolo[1,5-a]pyridin-6-yl)-1H-indol-5-yl)oxy)methyl)azetidin-1-yl) ethan-1-one]
[1]
  IC50: 0.6 nM
[2]
  IC50: 3.16 µM
[3]
  IC50: 9.4 nM

## Cc1c(-c2[nH]c3ccc(OCC4CN(C(=O)CN(C)C)C4)cc3c2C(C)C)cn2cnnc2c1C [Example 108, 1-(3-(((2-(7,8-dimethyl-[1,2,4]triazolo[4,3-a]pyridin-6-yl)-3-isopropyl-1H-indol-5-yl)oxy)methyl)azetidin-1-yl)-2-(dimethylamino) ethan-1-one]
[1]
  IC50: 14.6 nM
[2]
  IC50: 0.852 µM
[3]
  IC50: 124 nM

## CNCC(=O)N1CCC(Oc2ccc3[nH]c(-c4cc(C)nc(C)c4)c(C(C)C)c3c2)CC1 [Example 109, 1-(4-((2-(2,6-dimethylpyridin-4-yl)-3-isopropyl-H-indol-5-yl)oxy)piperidin-1-yl)-2-(methylamino)ethanone]
[1]
  IC50: 1.9 nM
[2]
  IC50: 0.3 µM
[3]
  IC50: 10 nM

## CNC(=O)CN1CCC(COc2ccc3[nH]c(-c4cc(C)nc(C)c4)c(C(C)C)c3c2)CC1 [Example 110, 2-(4-(((2-(2,6-dimethylpyridin-4-yl)-3-isopropyl-1H-indol-5-yl)oxy)methyl)piperidin-1-yl)-N-methylacetamide]
[1]
  IC50: 9.6 nM
[2]
  IC50: 0.492 µM
[3]
  IC50: 7.3 nM

## CNC(=O)CN1CCC(COc2ccc3[nH]c(-c4cc(C)c(=O)n(C)c4)c(C(C)C)c3c2)CC1 [Example 111, 2-(4-(((2-(1,5-dimethyl-6-oxo-1,6-dihydropyridin-3-yl)-3-isopropyl-1H-indol-5-yl)oxy)methyl)piperidin-1-yl)-N-methylacetamide]
[1]
  IC50: 14.2 nM
[2]
  IC50: 46.8 µM
[3]
  IC50: 6.8 nM

## CNC(=O)CN1CCC(Oc2ccc3[nH]c(-c4cc(C)c(=O)n(C)c4)c(C(C)C)c3c2)CC1 [Example 112, 2-(4-((2-(1,5-dimethyl-6-oxo-1,6-dihydropyridin-3-yl)-3-isopropyl-1H-indol-5-yl)oxy)piperidin-1-yl)-N-methylacetamide]
[1]
  IC50: 10.2 nM
[2]
  IC50: > 50 µM
[3]
  IC50: 8.9 nM

## CNC(=O)CN1CCC(COc2ccc3[nH]c(-c4cc(C)c5ncnn5c4)c(C(C)C)c3c2)CC1 [Example 113, 2-(4-(((3-isopropyl-2-(8-methyl-[1,2,4]triazolo[1,5-a]pyridin-6-yl)-1H-indol-5-yl)oxy)methyl)piperidin-1-yl)-N-methylacetamide]
[1]
  IC50: 1.4 nM
[2]
  IC50: 6.69 µM
[3]
  IC50: 7.6 nM
